Where a name gives a salt, the structure may show the parent alone.

Experiment [1] addresses human Adenosine A2a receptor (Homo sapiens (Human), UniProt P29274). The experiment is described as follows: Adenosine receptor TR-FRET binding assay (A2a). The conditions noted are these: inhibition of binding of 100 nM CA200645, CHO cell membranes. An outline of the steps:
(§1)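 In this homogeneous assay, test compounds compete with tracer CA200645 for Tb-labelled human adenosine receptors expressed in CHO cell membranes over 2 h at room temperature. Tracer levels differ by subtype: 30 nM for A2b, 100 nM for A1, A2a and A3. Specific FRET signal yields IC50, converted to Ki.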
On the technique in general: In TR-FRET formats the signal depends on donor and acceptor labels being close together.

The target of experiment [2] is human Adenosine A2b receptor (Homo sapiens (Human), UniProt P29275). The experiment is described as follows: Adenosine receptor TR-FRET binding assay (A2b). The conditions noted are these: TR-FRET, inhibition of binding of 30 nM CA200645, CHO cell membranes. An outline of the steps:
as §1

Experiment [3] has as its target human Adenosine A3 receptor (Homo sapiens (Human), UniProt P0DMS8). Kind of experiment: Adenosine receptor TR-FRET binding assay (A3). The conditions noted are these: inhibition of binding of 100 nM CA200645, CHO cell membranes. The procedure: Biological Example 1—Adenosine Receptor Time-Resolved Fluorescence Resonance Energy Transfer (TRFRET) Binding Assay
All FRET binding experiments were conducted at room temperature in white 384-well plates, in assay binding buffer containing 1×LabMed (Cisbio, France), 100 μg/mL saponin, 1% DMSO and 0.02% pluronic acid. Binding of the fluorescently labelled Adenosine receptor antagonist XAC (CA200645, FRET acceptor) to terbium-labelled A1, A2a, A2b and A3 adenosine receptors (FRET donors) was detected by time-resolved FRET due to the close proximity of the donor and acceptor in a binding event. To investigate the ability of unlabelled test compounds to bind to Adenosine A1, A2a, A2b and A3 receptors, dose response curves were constructed that determined the ability of a range of concentrations to inhibit the binding of 30 nM CA200645 to the A2b receptor and 100 nM CA200645 to the A1, A2a, and A3 receptor.
Serial dilution (1:3 dilutions) of test compounds in neat DMSO and transfer of a 400 nL sample of test compound into the assay plate was carried out using the Mosquito (TTP Labtech, UK). The compound samples were incubated for 2 hours at room temperature with a fixed concentration of CA200645 defined for each receptor (see above) and CHO cell membranes containing the human Adenosine A1 (0.5 μg/well), A2a (0.3 μg/well), A2b (1 μg/well) or A3 (1 μg/well) receptor in 40 μL of assay buffer. Total and non-specific binding of CA200645 was determined in the absence and presence of 10 μM XAC, respectively. Following 2 hours incubation, the level of CA200645 binding was detected on a Pherastar FSX (BMG Labtech, Germany) using standard TR-FRET settings. The terbium donor was excited with three laser flashes at a wavelength of 337 nm, and donor and acceptor emission was detected at 620 nm and 665 nm wavelengths, respectively. FRET ratios were obtained by multiplying the acceptor/donor ratio value by 10,000. Specific binding was determined by subtracting the non-specific binding FRET ratio from the total binding FRET ratio. Compound IC50 curves were analysed using GraphPad Prism 7.0 (GraphPad, USA) and Ki affinity values were determined from the obtained IC50 values using the method of Cheng and Prusoff.

In experiment [4] the target is human Adenosine A1 receptor (Homo sapiens (Human), UniProt P30542). Kind of experiment: Adenosine receptor TR-FRET binding assay (A1). The conditions noted are these: inhibition of binding of 100 nM CA200645, CHO cell membranes. The essentials: as §1
Sequence of human Adenosine A1 receptor (P30542 whole entry): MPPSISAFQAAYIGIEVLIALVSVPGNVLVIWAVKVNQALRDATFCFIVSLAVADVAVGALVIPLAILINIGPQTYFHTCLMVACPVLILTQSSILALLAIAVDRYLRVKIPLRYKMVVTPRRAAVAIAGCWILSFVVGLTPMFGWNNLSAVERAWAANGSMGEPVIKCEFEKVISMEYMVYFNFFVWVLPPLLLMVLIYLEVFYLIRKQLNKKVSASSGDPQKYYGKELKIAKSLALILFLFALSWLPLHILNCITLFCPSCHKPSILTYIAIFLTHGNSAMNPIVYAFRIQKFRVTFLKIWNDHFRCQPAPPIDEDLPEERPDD

Sequence of human Adenosine A2b receptor (P29275 whole entry): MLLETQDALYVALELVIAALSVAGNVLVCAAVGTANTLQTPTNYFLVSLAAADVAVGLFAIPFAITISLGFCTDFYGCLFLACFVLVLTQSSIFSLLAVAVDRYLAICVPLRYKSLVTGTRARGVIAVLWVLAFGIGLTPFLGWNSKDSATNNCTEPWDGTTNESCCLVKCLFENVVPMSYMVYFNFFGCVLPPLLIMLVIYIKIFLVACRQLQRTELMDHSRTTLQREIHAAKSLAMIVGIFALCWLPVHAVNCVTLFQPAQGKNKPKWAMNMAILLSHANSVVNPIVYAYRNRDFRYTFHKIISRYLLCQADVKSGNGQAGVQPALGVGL
Sequence of human Adenosine A2a receptor (P29274 whole entry): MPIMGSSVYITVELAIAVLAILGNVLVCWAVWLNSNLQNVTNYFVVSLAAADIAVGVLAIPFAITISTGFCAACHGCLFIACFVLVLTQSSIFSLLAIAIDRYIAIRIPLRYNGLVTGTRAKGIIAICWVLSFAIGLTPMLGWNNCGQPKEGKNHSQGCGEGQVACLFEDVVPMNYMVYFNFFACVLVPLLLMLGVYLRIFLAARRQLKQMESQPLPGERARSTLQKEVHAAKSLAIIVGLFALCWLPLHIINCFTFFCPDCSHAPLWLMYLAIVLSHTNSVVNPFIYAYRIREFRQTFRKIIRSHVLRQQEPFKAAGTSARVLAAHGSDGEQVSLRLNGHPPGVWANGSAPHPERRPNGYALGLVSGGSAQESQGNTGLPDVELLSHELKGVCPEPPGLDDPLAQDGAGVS
Sequence of human Adenosine A3 receptor (P0DMS8 whole entry): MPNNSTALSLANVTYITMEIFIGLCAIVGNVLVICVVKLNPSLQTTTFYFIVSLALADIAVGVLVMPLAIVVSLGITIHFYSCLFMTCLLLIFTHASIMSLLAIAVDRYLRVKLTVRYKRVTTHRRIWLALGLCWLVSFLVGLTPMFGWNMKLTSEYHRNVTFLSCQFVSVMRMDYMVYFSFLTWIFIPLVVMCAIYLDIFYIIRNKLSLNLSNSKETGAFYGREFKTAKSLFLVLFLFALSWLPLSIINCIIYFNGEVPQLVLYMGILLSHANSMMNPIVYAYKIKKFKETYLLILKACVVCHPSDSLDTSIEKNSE

`Cc1cc(-c2sc(NC(=O)N3CC4(CCOC4)C3)nc2-c2cccc(C#N)c2)cc(C(C)(C)O)n1` [Example 12.1, N-[4-(3-Cyanophenyl)-5-[2-(1-hydroxy-1-methyl-ethyl)-6-methyl-4-pyridyl]thiazol-2-yl]-6-oxa-2-azaspiro[3.4]octane-2-carboxamide]: the inhibition constant (Ki) (usually a measure of affinity in units of concentration, obtained from inhibition or displacement) turned out to be 0.0002 µM in experiment [1], 0.0031 µM in experiment [2], 1.24 µM in experiment [3] and 0.007 µM in experiment [4].
The like results for `N#Cc1cccc(-c2nc(NC(=O)N3CC4(COC4)C3)sc2-c2cc(Cl)nc(Cl)c2)c1` [Example 16.10] were, in that order, 0.00057 µM, 0.0017 µM, 0.254 µM and 0.043 µM.
For the molecule `Cc1cc(-c2sc(NC(=O)N3CCC(N4CCOCC4)C3)nc2-c2cccc(C#N)c2)cc(C)n1` (centres unmarked) [Example 6.84, N-[4-(3-Cyanophenyl)-5-(2,6-dimethyl-4-pyridyl)thiazol-2-yl]-3-morpholino-pyrrolidine-1-carboxamide hemi formate salt], the inhibitory constant (Ki) in experiment [1] is 0.00446 µM; in experiment [2], 0.0084 µM; in experiment [3], 0.568 µM; in experiment [4], 0.216 µM.
The like results for `Cc1cc(-c2sc(NC(=O)N3CCC4(CC3)C(=O)N(C)C(=O)N4C)nc2-c2cccc(C#N)c2)cc(CO)n1` [Example 9.5] were, in that order, 0.00228 µM, 0.0075 µM, 0.699 µM and 0.174 µM.
The like results for `Cc1cc(-c2sc(NC(=O)N3CCCC3)nc2-c2cccc(C#N)c2)cc(Cl)n1` [Example 3.2] were, in that order, 0.0004 µM, 0.0007 µM, 1.04 µM and 0.012 µM.
The like results for `Cc1cc(-c2sc(NC(=O)N3CC[C@@H](C(=O)O)C3)nc2-c2cccc(C#N)c2)cc(C)n1` [Example 6.65, (3R)-1-[[4-(3-Cyanophenyl)-5-(2,6-dimethyl-4-pyridyl)thiazol-2-yl]carbamoyl]pyrrolidine-3-carboxylic acid] were, in that order, 0.0456 µM, 0.0173 µM, 0.295 µM and 0.185 µM.
In the case of `Cc1cc(-c2sc(NC(=O)N3CCNC[C@H]3C)nc2-c2cccc(C#N)c2)cc(C)n1` [Example 13.8, (2R)-N-[4-(3-Cyanophenyl)-5-(2,6-dimethyl-4-pyridyl)thiazol-2-yl]-2-methyl-piperazine-1-carboxamide], the Ki in experiment [1] amounted to 0.00238 µM; in experiment [2], 0.0123 µM; in experiment [3], 0.041 µM; in experiment [4], 0.047 µM.
With `Cc1cc(-c2sc(NC(=O)N3CC(C(C)(C)O)C3)nc2-c2cccc(C#N)c2)cc(C)n1` [Example 4.33, N-[4-(3-Cyanophenyl)-5-(2,6-dimethyl-4-pyridyl)thiazol-2-yl]-3-(1-hydroxy-1-methyl-ethyl)azetidine-1-carboxamide], the inhibition constant (Ki) in experiment [1] came to 0.00191 µM; in experiment [2], 0.0059 µM; in experiment [3], 0.41 µM; in experiment [4] it was 0.062 µM.
The like results for `Cc1cc(-c2sc(NC(=O)N3CC[C@H](C(=O)O)C3)nc2-c2cccc(C#N)c2)cc(C)n1` [Example 6.63, (3S)-1-[[4-(3-Cyanophenyl)-5-(2,6-dimethyl-4-pyridyl)thiazol-2-yl]carbamoyl]pyrrolidine-3-carboxylic acid] were, in that order, 0.0343 µM, 0.0292 µM, 0.2 µM and 0.343 µM.
The like results for `CC(=O)N1C[C@H]2C[C@@H]1CN2C(=O)Nc1nc(-c2cccc(C#N)c2)c(-c2cc(C)nc(C)c2)s1` [Example 6.101, (1R,4R)-5-Acetyl-N-[4-(3-cyanophenyl)-5-(2,6-dimethyl-4-pyridyl)thiazol-2-yl]-2,5-diazabicyclo[2.2.1]heptane-2-carboxamide] were, in that order, 0.0011 µM, 0.003 µM, 0.853 µM and 0.03 µM.
The like results for `Cc1cc(-c2sc(NC(=O)N3CCC4(CCOC4)C3)nc2-c2cccc(C#N)c2)cc(C)n1` (centres unmarked) [Example 6.80, N-[4-(3-Cyanophenyl)-5-(2,6-dimethyl-4-pyridyl)thiazol-2-yl]-2-oxa-7-azaspiro[4.4]nonane-7-carboxamide] were, in that order, 0.0008 µM, 0.0024 µM, 0.45 µM and 0.13 µM.
As to `Cc1cc(-c2sc(NC(=O)N3CCC(N)(C#N)CC3)nc2-c2cccc(C#N)c2)cc(C)n1` [Example 7.2, 4-Amino-4-cyano-N-[4-(3-cyanophenyl)-5-(2,6-dimethyl-4-pyridyl)thiazol-2-yl]piperidine-1-carboxamide], the inhibition constant Ki was 0.0002 µM in experiment [1], 0.001 µM in experiment [2], 0.337 µM in experiment [3] and 0.008 µM in experiment [4].
The like results for `Cc1cc(-c2sc(NC(=O)N3CCO[C@H](CO)C3)nc2-c2cccc(C#N)c2)cc(C)n1` [Example 4.21, (2S)-N-[4-(3-Cyanophenyl)-5-(2,6-dimethyl-4-pyridyl)thiazol-2-yl]-2-(hydroxymethyl)morpholine-4-carboxamide] were, in that order, 0.0003 µM, 0.001 µM, 0.265 µM and 0.01 µM.
The like results for `Cc1cc(-c2sc(NC(=O)N3CC[S+]([O-])CC3)nc2-c2cccc(C#N)c2)cc(C#N)n1` [Example 16.5] were, in that order, 0.0119 µM, 0.0199 µM, 0.325 µM and 0.087 µM.
The like results for `Cc1cc(-c2sc(NC(=O)N3CCN4C(=O)CNC(=O)C4C3)nc2-c2cccc(C#N)c2)cc(C)n1` (centres unmarked) [Example 6.35, N-[4-(3-Cyanophenyl)-5-(2,6-dimethyl-4-pyridyl)thiazol-2-yl]-6,9-dioxo-1,3,4,7,8,9a-hexahydropyrazino[1,2-a]pyrazine-2-carboxamide] were, in that order, 0.00958 µM, 0.0209 µM, 0.303 µM and 0.243 µM.
As to `COc1cc(-c2sc(NC(=O)N3CCS(=N)(=O)CC3)nc2-c2cccc(C#N)c2)cc(C)n1` [Example 16, N-[4-(3-Cyanophenyl)-5-(2-methoxy-6-methyl-4-pyridyl)thiazol-2-yl]-1-imino-1-oxo-1,4-thiazinane-4-carboxamide], the inhibition constant (Ki) worked out at 0.00271 µM in experiment [1], 0.0024 µM in experiment [2], 0.334 µM in experiment [3] and 0.055 µM in experiment [4].
Consider `Cc1cc(-c2sc(NC(=O)N3CCC(c4ncon4)CC3)nc2-c2cccc(C#N)c2)cc(C)n1` [Example 6.22, N-[4-(3-Cyanophenyl)-5-(2,6-dimethyl-4-pyridyl)thiazol-2-yl]-4-(1,2,4-oxadiazol-3-yl)piperidine-1-carboxamide], for which the Ki in experiment [1] amounted to 0.00038 µM; in experiment [2], 0.0018 µM; in experiment [3], 0.107 µM; in experiment [4] it was 0.004 µM.
With `Cc1cc(-c2sc(NC(=O)N3CC(=O)N[C@H](C)C3)nc2-c2cccc(C#N)c2)cc(C)n1` [Example 6.85, (3R)-N-[4-(3-Cyanophenyl)-5-(2,6-dimethyl-4-pyridyl)thiazol-2-yl]-3-methyl-5-oxo-piperazine-1-carboxamide], the Ki was determined as 0.0121 µM in experiment [1], 0.016 µM in experiment [2], 0.216 µM in experiment [3] and 0.044 µM in experiment [4].
As to `Cc1cc(-c2sc(NC(=O)N3CCNC[C@@H]3CO)nc2-c2cccc(C#N)c2)cc(C)n1` [Example 13.5, (2R)-N-[4-(3-Cyanophenyl)-5-(2,6-dimethyl-4-pyridyl)thiazol-2-yl]-2-(hydroxymethyl)piperazine-1-carboxamide], the inhibitory constant (Ki) in experiment [1] is 0.00987 µM; in experiment [2], 0.0188 µM; in experiment [3], 0.226 µM; in experiment [4] it was 0.084 µM.
Take `Cc1cc(-c2sc(NC(=O)N3CC[C@@H]3C(C)(C)O)nc2-c2cccc(C#N)c2)cc(C)n1` [Example 6.83, (2R)-N-[4-(3-Cyanophenyl)-5-(2,6-dimethyl-4-pyridyl)thiazol-2-yl]-2-(1-hydroxy-1-methyl-ethyl)azetidine-1-carboxamide]: the inhibition constant (Ki) worked out at 0.0676 µM in experiment [1], 0.102 µM in experiment [2], 0.294 µM in experiment [3] and 0.129 µM in experiment [4].

The values are drawn from patent US20230293517A1, “ANTAGONIST COMPOUNDS” (AdoRx Therapeutics Limited, priority 2020, published 2023).
